Assay results published in patent publication US7202255B2, “Substituted [1,4] benzodioxino[2,3-e] isoindole derivatives, method for preparing and pharmaceutical compositions containing same” (Les Laboratoires Servier, priority 2002, dated 2007).
Structures can show the parent of a compound that is named as a salt.

melting point | SMILES
214 °C | CN1C(=O)c2c(Oc3ccccc3OS(=O)(=O)C(F)(F)F)cc3[nH]c4ccccc4c3c2C1=O (as salt: methanesulphonate) [Example 38, 2-[(2-Methyl-1,3-dioxo-1,2,3,6-tetrahydropyrrolo[3,4-c]carbazol-4-yl)oxy]phenyl trifluoromethanesulphonate]
130 °C | Cn1c(=O)c2c3oc4ccccc4oc3c3c(oc4ccccc4n3C(=O)Oc3ccccc3)c2c1=O [Example 1, Phenyl 7-methyl-6,8-dioxo-7,8-dihydro[1,4]benzodioxino[2,3-a]-pyrrolo[3,4-c]phenoxazine-15(6H)carboxylate]
150 °C | CN(C)CCn1c(=O)c2c3oc4ccccc4[nH]c3c3oc4ccccc4oc3c2c1=O [Example 2, 7-[2-(Dimethylamino)ethyl][1,4]benzodioxino[2,3-a]pyrrolo[3,4-c]-phenoxazine-6,8(7H,15H)-dione]
> 250 °C | Cn1c(=O)c2c3oc4ccccc4oc3c3c(oc4cccnc4n3C(=O)Oc3ccccc3)c2c1=O [Example 3, Phenyl 7-methyl-6,8-dioxo-7,8-dihydro[1,4]benzodioxino[2,3-e]-pyrido[2′,3′:5,6][1,4]oxazino[3,2-g]isoindole-15(6H)-carboxylate]
150 °C (dec.) | CN(C)CCn1c(=O)c2c3oc4cccnc4[nH]c3c3oc4ccccc4oc3c2c1=O [Example 4, 7-[2-(Dimethylamino)ethyl][1,4]benzodioxino[2,3-e]pyrido[2′,3′:5,6]-[1,4]oxazino[3,2-g]isoindole-6,8(7H,15H)-dione]
189 °C (dec.) | Cn1c(=O)c2c3oc4ccccc4oc3c3c(c4ccccc4n3C(=O)OC(C)(C)C)c2c1=O [Example 5, tert-Butyl 7-methyl-6,8-dioxo-7,8-dihydro[1,4]benzodioxino[2,3-a]-pyrrolo[3,4-c]carbazole-13(6H)-carboxylate]
298 °C (dec.) | CN(C)CCn1c(=O)c2c3oc4ccccc4oc3c3[nH]c4ccccc4c3c2c1=O [Example 7, 7-[2-(Dimethylamino)ethyl][1,4]benzodioxino[2,3-a]pyrrolo[3,4-c]-carbazole-6,8(7H,13H)-dione]
> 355 °C | Cn1c(=O)c2c3oc4ccccc4oc3c3[nH]c4ccc(F)cc4c3c2c1=O [Example 11, 10-Fluoro-7-methyl[1,4]benzodioxino[2,3-a]pyrrolo[3,4-c]carbazole-6,8(7H,13H)-dione]
337 °C (dec.) | CN(C)CCn1c(=O)c2c3oc4ccccc4oc3c3[nH]c4ccc(F)cc4c3c2c1=O [Example 12, 7-[2-(Dimethylamino)ethyl]-10-fluoro[1,4]benzodioxino[2,3-a]-pyrrolo[3,4-c]carbazole-6,8(7H,13H)-dione]
> 360 °C | Cn1c(=O)c2c3oc4ccccc4oc3c3[nH]c4cc(F)ccc4c3c2c1=O [Example 13, 11-Fluoro-7-methyl[1,4]benzodioxino[2,3-a]pyrrolo[3,4-c]carbazole-6,8(7H,13H)-dione]
301 °C (dec.) | CN(C)CCn1c(=O)c2c3oc4ccccc4oc3c3[nH]c4cc(F)ccc4c3c2c1=O [Example 14, 7-[2-(Dimethylamino)ethyl]-11-fluoro[1,4]benzodioxino[2,3-a]-pyrrolo[3,4-c]carbazole-6,8(7H,13H)-dione]
> 350 °C | Cn1c(=O)c2c3oc4ccccc4oc3c3[nH]c4ccc(O)cc4c3c2c1=O [Example 18, 10-Hydroxy-7-methyl[1,4]benzodioxino[2,3-a]pyrrolo[3,4-c]-carbazole-6,8(7H,13H)-dione]
254 °C (dec.) | CN(C)CCn1c(=O)c2c3oc4ccccc4oc3c3[nH]c4ccc(OCc5ccccc5)cc4c3c2c1=O [Example 19, 10-(Benzyloxy)-7-[2-(dimethylamino)ethyl][1,4]benzodioxino[2,3-a]-pyrrolo[3,4-c]carbazole-6,8(7H,13H)-dione]
> 360 °C | CN(C)CCn1c(=O)c2c3oc4ccccc4oc3c3[nH]c4ccc(O)cc4c3c2c1=O [Example 20, 7-[2-(Dimethylamino)ethyl]-10-hydroxy[1,4]benzodioxino[2,3-a]-pyrrolo[3,4-c]carbazole-6,8(7H,13H)-dione]
360 °C | Cn1c(=O)c2c3oc4ccccc4oc3c3[nH]c4cc(O)ccc4c3c2c1=O [Example 22, 11-Hydroxy-7-methyl[1,4]benzodioxino[2,3-a]pyrrolo[3,4-c]-carbazole-6,8(7H,13H)-dione]
262 °C (dec.) | CN(C)CCn1c(=O)c2c3oc4ccccc4oc3c3[nH]c4cc(OCc5ccccc5)ccc4c3c2c1=O [Example 23, 11-(Benzyloxy)-7-[2-(dimethylamino)ethyl][1,4]benzodioxino[2,3-a]-pyrrolo[3,4-c]carbazole-6,8(7H,13H)-dione]
> 360 °C | CN(C)CCn1c(=O)c2c3oc4ccccc4oc3c3[nH]c4cc(O)ccc4c3c2c1=O [Example 24, 7-[2-(Dimethylamino)ethyl]-11-hydroxy[1,4]benzodioxino[2,3-a]-pyrrolo[3,4-c]carbazole-6,8(7H,13H)-dione]
> 304 °C | CC(C)(C)OC(=O)n1c2ccc(OCc3ccccc3)cc2c2c3c(=O)[nH]c(=O)c3c3oc4ccccc4oc3c21 [Example 25, tert-Butyl 10-(benzyloxy)-6,8-dioxo-7,8-dihydro[1,4]benzo-dioxino[2,3-a]pyrrolo[3,4-c]carbazole-13(6H)-carboxylate]
199 °C | CC(C)(C)OC(=O)n1c2cc(OCc3ccccc3)ccc2c2c3c(=O)[nH]c(=O)c3c3oc4ccccc4oc3c21 [Example 27, tert-Butyl 11-(benzyloxy)-6,8-dioxo-7,8-dihydro[1,4]benzo-dioxino[2,3-a]pyrrolo[3,4-c]carbazole-13(6H)-carboxylate]
> 340 °C | O=c1[nH]c(=O)c2c1c1oc3ccccc3oc1c1[nH]c3cc(O)ccc3c12 [Example 28, 11-Hydroxy[1,4]benzodioxino[2,3-a]pyrrolo[3,4-c]carbazole-6,8(7H,13H)-dione]
198 °C | CC(C)(C)OC(=O)n1c2cc(OCc3ccccc3)ccc2c2c3c(c(Oc4ccccc4O)cc21)C(=O)NC3=O [Example 30, tert-Butyl 8-(benzyloxy)-4-(2-hydroxyphenoxy)-1,3-dioxo-2,3-dihydropyrrolo[3,4-c]carbazole-6(1H)-carboxylate]
170 °C | CN1C(=O)c2c(Oc3ccccc3O)cc3c(c2C1=O)c1cc(OCc2ccccc2)ccc1n3C(=O)OC(C)(C)C [Example 31, tert-Butyl 9-(benzyloxy)-4-(2-hydroxyphenoxy)-2-methyl-1,3-dioxo-2,3-dihydropyrrolo[3,4-c]carbazole-6(1H)-carboxylate]
277 °C (dec.) | CN1C(=O)c2c(Oc3ccccc3O)cc3[nH]c4ccc(O)cc4c3c2C1=O [Example 32, 9-Hydroxy-4-(2-hydroxyphenoxy)-2-methylpyrrolo[3,4-c]-carbazole-1,3(2H,6H)-dione]
182 °C (dec.) | CN1C(=O)c2c(Oc3ccccc3O)cc3c(c2C1=O)c1ccccc1n3C(=O)OC(C)(C)C [Example 33, tert-Butyl 4-(2-hydroxyphenoxy)-2-methyl-1,3-dioxo-2,3-dihydropyrrolo[3,4-c]carbazole-6(1H)-carboxylate]
> 333 °C | COc1ccccc1Oc1cc2c(c3c1C(=O)N(C)C3=O)c1ccccc1n2C(=O)OC(C)(C)C [Example 34, tert-Butyl 4-(2-methoxyphenoxy)-2-methyl-1,3-dioxo-2,3-dihydropyrrolo[3,4-c]carbazole-6(1H)-carboxylate]
228 °C | COc1ccccc1Oc1cc2[nH]c3ccccc3c2c2c1C(=O)N(C)C2=O [Example 35, 4-(2-Methoxyphenoxy)-2-methylpyrrolo[3,4-c]carbazole-1,3(2H,6H)-dione]
182 °C | CN1C(=O)c2c(Oc3ccccc3OS(=O)(=O)C(F)(F)F)cc3c(c2C1=O)c1ccccc1n3C(=O)OC(C)(C)C [Example 37, tert-Butyl 2-methyl-1,3-dioxo-4-(2-{[(trifluoromethyl)sulphonyl]-oxy}phenoxy)-2,3-dihydropyrrolo[3,4-c]carbazole-6(1H)-carboxylate]
191 °C | CN1C(=O)c2c(Oc3ccccc3O)cc3c(c2C1=O)c1ccc(OCc2ccccc2)cc1n3C(=O)OC(C)(C)C [Example 39, tert-Butyl 8-(benzyloxy)-4-(2-hydroxyphenoxy)-2-methyl-1,3-dioxo-2,3-dihydropyrrolo[3,4-c]carbazole-6(1H)-carboxylate]
186 °C | CN1C(=O)c2c(Oc3ccccc3OS(=O)(=O)C(F)(F)F)cc3c(c2C1=O)c1ccc(OCc2ccccc2)cc1n3C(=O)OC(C)(C)C [Example 40, tert-Butyl 8-(benzyloxy)-2-methyl-1,3-dioxo-4-(2-{[(trifluoro-methyl)sulphonyl]oxy}phenoxy)-2,3-dihydropyrrolo[3,4-c]-carbazole-6(1H)-carboxylate]
200 °C | CN1C(=O)c2c(Oc3ccccc3O)cc3[nH]c4cc(O)ccc4c3c2C1=O [Example 41, 8-Hydroxy-4-(2-hydroxyphenoxy)-2-methylpyrrolo[3,4-c]-carbazole-1,3(2H,6H)-dione]
